Test results: publication PMC8949075, “Evaluation of Two Novel Hydantoin Derivatives Using Reconstructed Human Skin Model Episkin^TM: Perspectives for Application as Potential Sunscreen Agents” (Molecules, 2022)

Columns and labels:
[1] = test system: Episkin^TM reconstructed human epidermis; assay: Episkin skin permeation test (finite dose, OECD 428); type: in vitro ADME; details: 2% formulation; for absorbed amount detected in the RF (of the applied dose): 24 h exposure, 10 mg/cm^2 finite dose; for detection in the receptor fluid over time: sampling 0-6 and 24 h; for detection in the receptor fluid over time / absorption rate (amount in receptor fluid): 10 mg/cm^2; for absorption rate (amount in receptor fluid): after 24 h
Description: (§1) The MM was provided by the manufacturer.
(§2) The receptor fluid composition was based on the pilot experiments.
(§3) The formulations of the test compounds (JH3 and JH10) and commercial UV filters were applied onto the skin surface in the donor compartment in a net dose of 10 mg/cm^2 (finite dose application) using disposable flexible loops. To quantify the dose of the formulation applied on the top of the Episkin^TM model, the loops were weighed, filled with approximately 11 mg of formulation, and then reweighed. The difference in weight was used as the amount of formulation applied. Commercial UV filters such as BP3, 4MBC, and AVO were used as reference standards. The filters were obtained from Sigma-Aldrich, Darmstadt, Germany.
(§4) The plate with tissues was embedded with parafilm and incubated at specific time points at 32 °C. As the passive diffusion of chemicals (and therefore their skin absorption) is affected by temperature, the diffusion chamber and skin were maintained at a constant temperature close to normal skin temperature of 32 ± 1 °C [19, 23, 30, 32]. At fixed time points (0, 1, 2, 3, 4, 5, 6, and 24 h), aliquots of the receptor fluid (0.5 mL) were collected from the receptor compartment and immediately replaced with fresh fluid. After 24 h the entire receptor fluid was collected, and the skin surface was washed thoroughly with cotton buds impregnated in methanol (5 times). The tissues were removed from the inserts and both the donor and receptor compartments were washed separately with methanol. The samples were stored at −20 °C until chemical analysis.
(§5) All samples were spiked with 25 µL of pentoxifylline (PTX, Sigma-Aldrich, Darmstadt, Germany) (final concentration of 20 µM) used as an internal standard prior to extraction. The samples were analyzed using ultra high-pressure liquid chromatography coupled with mass spectrometry (UHPLC/MS; Waters Corporation, Milford, MA, USA). Quantification was based on peak area and calculated from standard calibration curves of the compound adjusted by the internal standard area. The assay was in agreement with the Organization for Economic Co-operation and Development (OECD) guideline 428 [19].

[2] = as above; type: in vitro ADME, human; details: human; 24 h exposure, 10 mg/cm^2 finite dose, 2% formulation; read-out: recovery in the epidermis (of the applied dose)
Description: as §1, §2, §3, §4, §5

[3] = parameters: method as in earlier work; details: cited from earlier work
[4] = CHO-K1 cytotoxicity assay (MTT); type: cell-based; details: Chinese hamster, CHO-K1 cells, concentrations ranging from 1 to 10 µM
Description: The Chinese hamster ovary CHO-K1 cell line was obtained from the American Type Culture Collection (ATCC CCL-61). The CHO-K1 cell line was cultured in a humidified incubator at 37 °C with 5% CO2, in F-12K Medium (Kaighn’s Modification of Ham’s F-12 Medium) (ATCC) supplemented with 10% fetal bovine serum (FBS; Gibco, Waltham, MA, USA) and antibiotics (1% streptomycin/penicillin salts mixture, Sigma–Aldrich, Darmstadt, Germany).
The cells were seeded at a density of 6 × 10^3 on 96-well plates. […] Test compounds and 4MBC were dissolved in DMSO (solvent, final concentration 0.1%) and ethanol (co-solvent, final concentration 1%). At the end of the incubation period, 10 µL of MTT reagent was added to each well. After 4 h incubation (37 °C, 5% CO2), the medium was discarded, and the formazan produced in the cells appeared as dark crystals in the bottom of the wells. Next, pure DMSO was added to each well. The optical density data of converted dye was measured at 570 nm (A570) on microplate reader. […] The experiment was conducted two times with three repetitions for each condition.

[5] = cited from earlier work
CHO-K1 cells = assay: In vitro micronucleus assay; type: cell-based, Chinese hamster
Description: The CHO-K1 cells were seeded in 6-well plates at a density of 1 × 10^6 cells/well and incubated overnight at 37 °C, 5% CO2 atmosphere. […] The test compounds and 4MBC were dissolved in DMSO (solvent, final concentration 0.1%) and ethanol (co-solvent, final concentration 1%). After 24 h of treatment, the medium was removed, and the cells were rinsed with PBS. Then, fresh medium containing cytochalasin B (CytB; Sigma Aldrich, Darmstadt, Germany) (4.5 µg/mL) was added and incubation was continued for the next 24 h.
After the incubation period, the cells were washed with fresh medium, detached by trypsinization, and centrifuged. The supernatant was discarded and 5 mL of 1% ice-cold sodium citrate (Chempur, Piekary Śląskie, Poland) was added to the cell pellet, which was then gently resuspended. After 15 s, 5 mL of freshly prepared fixative solution (methanol/acetic acid, 3:1) and 4 drops of formaldehyde were added. The cell suspension was centrifuged (5 min, 1000 rpm), the supernatant was discarded again, and the pellet was fixed in fixative mixture two more times, without formaldehyde. After the third fixation, part of the supernatant was removed, and around 1 mL of the supernatant was retained to resuspend the cells. The suspension was then dripped onto clean, previously frozen, glass slides to dry. After air-drying, the slides were stained with Giemsa dye (1:20 in phosphate buffer) for 5 min [56, 78, 79].
One thousand binucleated cells per slide with intact nuclei of equal size, similar pattern of cytoplasm staining, intact membrane, and distinguishable from adjacent cells, without apoptotic and necrotic cells were analyzed. Only the micronuclei with the same morphology and color of the main nuclei, with 1/16 to 1/3 of the major nucleus diameter, unrefringent and not overlapping or connected to the main nuclei were counted. Moreover, the presence of dicentric bridges (DB) and nuclear buds (NB) in the binucleated cells was analyzed. The nuclear division index (NDI) was calculated using the following formula: [(1 × MOC) + (2 × BC) + (3 × MUC)]/N, where MOC is the number of mononuclear cells, BC is the number of binuclear cells, MUC represents the number of multinuclear cells, and N is the total number of scored cells. The micronucleus incidence was presented as a number of micronuclei per 1000 examined binuclear cells. The experiment was conducted two times with three repetitions for each condition.

[6] = parameters: method as in PMID 26674115; details: cited from earlier work
[7] = test system: Episkin^TM reconstructed human epidermis; assay: Episkin skin irritation test (MTT viability, Il-1α release; OECD 439); details: 26 mg/cm^2 topical, 15 min exposure, 42 h post-incubation
Description: The Episkin^TM model (aged 13 days, large/1.07 cm^2 surface area) was provided by Episkin (Lyon, France). The Episkin^TM kit consists of 12 reconstructed epidermis units made of type I collagen matrix, representing the dermis, surfaced with a film of type IV collagen, upon which is laid a stratified and differentiated epidermis derived from human keratinocytes [17]. Upon receipt of the tissues, the culture inserts were removed from the agarose-nutrient solution and transferred into 12-well plates containing 2 mL of the maintenance medium (MM) per well. The MM was provided by the manufacturer. Tissues were then incubated for 24 h at 37 °C in a humidified atmosphere of 5% CO2 before use in the permeation, irritation, or phototoxicity experiments.
Prior to the irritation experiments, the Episkin^TM inserts were washed with sterile PBS to remove traces of the MM and transferred into new 12-well plates containing 2 mL of fresh MM. […] Sodium dodecyl sulphate (SDS; Sigma-Aldrich, Darmstadt, Germany) (5% in water) and PBS were used as positive and negative controls, respectively. Both controls were applied topically (26 mg/cm^2). Samples were tested in two independent experiments using three tissues for each chemical, positive, or negative control.
Then, the tissues were placed in new 12-well plates containing 2 mL of the MM per well and incubated for an additional 42 h at 37 °C in a humidified atmosphere of 5% CO2 as post-treatment incubation time. At the end of this period, the culture media of each tissue were collected and stored at −20 °C for Il-1α measurement.
The cell viability was assessed by a subsequent incubation of the tissues for 3 h with freshly prepared 3-(4,5-dimethylthiazol-2-yl)-2,5-diphenyltetrazolium bromide (MTT; Sigma-Aldrich, Darmstadt, Germany) solution (0.3 mg/mL in assay medium (AM)) in a 12-well plate. Then, a biopsy of the epidermis was done using a puncher (Episkin, Lyon, France), and the precipitated formazan was extracted using 500 µL of acidified isopropanol (Chempur, Piekary Śląskie, Poland) (0.04 N HCl in isopropanol) for 48 h (4 °C). At the end of the extraction period, 200 µL of each sample were transferred to 96-well plates for absorbance measurements at 570 nm (A570) [70, 71, 72, 73]. […] Viability (percent of control) was determined by dividing A570 of experimental wells by A570 of control wells × 100%. The test substance was considered as an irritant when mean tissue viability was equal or less than 50% [16, 17].
Il-1α measurement was conducted by a classic enzyme-linked immunosorbent assay (ELISA) technique (Cayman Chemical, Ann Arbor, MI, USA). Firstly, 100 µL of the samples were added into a 96-well ready to use microtiter plate (precoated with a monoclonal antibody specific for Il-1α (Il-1α capture antibody). Secondly, 100 µL of an acetylcholinesterase:Fab’ Conjugate (AChE:Fab’) was added to each well. The plate was covered with plastic film and incubated overnight at 4 °C. At the end of the incubation period the contents of each well were removed and rinsed five times with wash buffer. Next, 200 µL of Ellman’s reagent (containing the substrate for AChE) was added to each well, the plate was covered with plastic film and developed in the dark using an orbital shaker. The absorbance of the wells was measured at 410 nm. Il-1α concentrations were then calculated using the standard curve.

[8] = Episkin phototoxicity test (UVA 50 J/cm^2; MTT viability, Il-1α release); type: cell-based, human; details: human; 0.5 mM, UVA 50 J/cm^2; read-out: tissue viability after UVA exposure compared to non-irradiated epidermis
Description: as §1
Compounds JH3 and JH10 (final concentrations of 0.5 and 1 mM) solubilized in ethanol (final concentration of 1% in water) were applied topically on the tissue surface. Chlorpromazine (CPZ, chlorpromazine hydrochloride, C17H19ClN2S·HCl, CAS number: 69-09-0, molecular weight: […], purity: meets USP testing specifications, Sigma-Aldrich, Darmstadt, Germany) (final concentration of 0.5 mM, based on literature data) was used as a positive control, whereas solvent alone served as a negative control.
Duplicate plates were prepared for UVA and dark (controls) exposure purposes. After the treatment period of 2 h, the excess test compound was removed from each well, and the tissues were exposed to UVA at a non-cytotoxic dose of 50 J/cm^2 ([…] at 250 W/m^2) with a solar light simulator equipped with a window glass filter and ID65 filter (Suntest CPS+, Atlas, Linsengericht, Germany). The emitted spectrum contained both UV and visible outputs with a UV cut-on of approx. 320 nm and corresponded to ID65 per ISO 10,977 [74]. The irradiance level between 320 and 400 nm was approximated by the following equation: W/m^2 (320–400 nm) = W/m^2 (300–800 nm) ÷ 11.5. In parallel, the non-irradiated treated tissues were placed in the dark under the same conditions. […] Next, cell viability was assessed using an MTT conversion test and the culture media aliquots were kept frozen (−20 °C) for Il-1α measurement (see 2.3.2. The Episkin^TM skin irritation test method section).

Cc1ccc(C=C2C(=O)C3(C)CCC2C3(C)C)cc1 (stereo not drawn) [4MBC, 3-(4-methylbenzylidene) camphor, reference compound]
absorbed amount detected in the RF (of the applied dose) [1]: 3% | detection in the receptor fluid over time [1]: detected only after 24 h exposure | recovery at 24 h, 2 % in formulation [2]: 28% | in vitro chromosomal aberration test result [3]: negative | viability at 24 h [4]: > 75% | bacterial mutation (Ames) assay result [5]: negative | DB (dicentric bridges) (CHO-K1 cells; Chinese hamster, 24 h, 1 µM): 4.6 | MN (micronuclei) (CHO-K1 cells; Chinese hamster, 24 h, 1 µM): 8.3 ± 2.9 | NB (nuclear buds) (CHO-K1 cells; Chinese hamster, 24 h, 1 µM): 3.7 | NDI (nuclear division index) (CHO-K1 cells; Chinese hamster, 24 h, 1 µM): 1.35 | DB (dicentric bridges) (CHO-K1 cells; Chinese hamster, 24 h, 5 µM): 4.5 | MN (micronuclei) (CHO-K1 cells; Chinese hamster, 24 h, 5 µM): 9.0 ± 3.4 | NB (nuclear buds) (CHO-K1 cells; Chinese hamster, 24 h, 5 µM): 3.5 | NDI (nuclear division index) (CHO-K1 cells; Chinese hamster, 24 h, 5 µM): 1.30 | DB (dicentric bridges) (CHO-K1 cells; Chinese hamster, 24 h, 10 µM): 3.4 | MN (micronuclei) (CHO-K1 cells; Chinese hamster, 24 h, 10 µM): 7.3 ± 4.4 | NB (nuclear buds) (CHO-K1 cells; Chinese hamster, 24 h, 10 µM): 4.9 | NDI (nuclear division index) (CHO-K1 cells; Chinese hamster, 24 h, 10 µM): 1.39 | log P [6]: 4.95

CO[C@@]12[C@H](COC(N)=O)C3=C(C(=O)C(C)=C(N)C3=O)N1C[C@@H]1N[C@@H]12 [MMC, Mitomycin C, reference compound]
increase in the number of MNs vs normal and vehicle control (CHO-K1 cells; 0.5 µg/mL): approximately 10 fold | increase in the number of NBs vs normal and vehicle control (CHO-K1 cells; 0.5 µg/mL): 7 fold | MN (micronuclei) (CHO-K1 cells; 0.5 µg/mL (positive control), count in 1000 binucleated cells per slide): 88.5 ± 6.5

CCCCCCCCCCCCOS(=O)(=O)[O-].[Na+] [SDS, Sodium dodecyl sulphate, reference compound]
Il-1α release [7]: 96 pg/mL | mean tissue viability ([7]; vs negative control): approximately 10%

COc1ccc(C(=O)c2ccccc2)c(O)c1 [BP3, benzophenone-3]
absorbed amount detected in the RF (of the applied dose) [1]: 12% | absorption rate (amount in receptor fluid) [1]: 20 µg/cm^2 | detection in the receptor fluid over time [1]: clearly detectable after the third hour | recovery at 24 h, 2 % in formulation [2]: 18%

CN(C)CCCN1c2ccccc2Sc2ccc(Cl)cc21 [CPZ, Chlorpromazine, reference compound]
viability at 2 h, 0.5 mM [8]: ~40%

COc1ccc(C(=O)CC(=O)c2ccc(C(C)(C)C)cc2)cc1 [AVO, avobenzone]
absorbed amount detected in the RF (of the applied dose) [1]: about 1% | absorption rate (amount in receptor fluid) [1]: 3 µg/cm^2 | recovery at 24 h, 2 % in formulation [2]: 16% | log P [6]: 4.51
